# Assays:
# [1] = Absorbance of the adducts with butylamine in acetonitrile; assay type: physicochemical; conditions: Bioconjugated molecule (BuNH2) in CH3CN; for λ UV (nm), second maximum: longer-wavelength absorption maximum, used for excitation; for λ UV (nm), first maximum: shorter-wavelength absorption maximum
# Procedure: (§1) Apparatus: • Acetonitrile: VWR HPLC quality • Micropipette: 5 μl, 10 μl, 200 μl, 1000 μl, • Eppendorf: Safe lock tube PCR • UV cuvette: Varian-Quartz 10 mm thick • Fluorescence cuvette: Hellma-Quartz 10 mm thick • Vortex: Bender & Hobein-Genie 2 • Centrifuge: Baky Bug • Absorbance spectrophotometer: Varian-Cary 50 scan • Fluorescence spectrophotometer: Varian-Cary Eclipse • Thermostated bath: Varian-Cary single cell peltier accessory Stock Solution:
# (§2) Approximately exactly 1 to 2 mg of compound Ia-Io are weighed out in a 1.5 mL Eppendorf tube. The stock solutions are then prepared by adding exactly 1 mL of acetonitrile and the Eppendorf tubes are then stored protected from light.
# 30 μl of stock solution are placed in a 1.5 mL Eppendorf tube. At room temperature, 10 μl (or 30 μl in the case of Ik) of a 0.15 M solution of butylamine/acetonitrile are added and the medium is stirred by vortex and then centrifuged. After diluting to 1 mL by adding 960 μl of acetonitrile (or 940 μl in the case of Ik), the clear solution is transferred into a UV cuvette and then made up to 2 mL with acetonitrile. The analysis is then performed after producing a “blank” spectrum with a pure acetonitrile solution.
# [2] = Fluorescence of the adducts with butylamine in acetonitrile; assay type: physicochemical; parameters: Δ Stokes: unit not given here; conditions: Bioconjugated molecule (BuNH2) in CH3CN; for Δ Stokes: emission minus excitation wavelength; for λ fluo (λ excitation) (nm): excitation at maximum-absorption wavelength; for Intensity normalized to 50 μM: fluorescence intensity
# Procedure: as §1, §2
# Two protocols were implemented for the fluorescence tests. • For compounds Ii-Ik: 125 μL of the preceding solution (absorbance solution) are diluted to 1.25 mL by adding 1125 μl of acetonitrile to a fluorescence cuvette. The analysis is then performed on the fluorescence spectrophotometer by excitation at the respective maximum-absorption wavelengths. • For compounds Ia-Ih and Il-Io: 1250 μl of the preceding solution (absorbance) are placed in a fluorescence cuvette. The analysis is then performed on the fluorescence spectrophotometer by excitation at the respective maximum-absorption wavelengths.
# [3] = Photobleaching of stained standard proteins in gel under UV transilluminator; assay type: physicochemical; conditions: protein-stained gel, first-order exponential decay fit, deduced from FIG. 1
# Procedure: The compounds were dissolved at 10 mg/mL in DMSO. The stock solutions obtained were diluted to 1 mg/mL in water and divided into 100 μL aliquots for storage. All the products and aliquots were stored at −80° C.
# Standard proteins (SDS labeling kit-low molecular weight sold by GE, 17-0446-01) were diluted in an LDS buffer (250 μL Invitrogen 4×LDS buffer, 100 μL of 1 M DDT, 650 μL of water) to create serial dilutions ranging from 128 ng/STI band to 125 pg/STI band.
# 5 μL of each protein solution were loaded onto NuPAGE® Novex® 12% bis-tris gels (1.0 mm thick, 12 wells, Invitrogen NP0342BOX). The gels were subjected to a current of 150 V for approximately 65 minutes using MES buffer (50 mM MES, 50 mM tris, 1 mM EDTA, 0.1% SDS, pH 7.3) so that the buffer front arrives just up to the gel. After eluting the dye, the gels were fixed for 1 to 17 hours (100 mL of fixing solution with 15% EtOH (v/v) and 1% citric acid) in individual lanes. The fixing solution used was replaced with fresh solution one hour after staining. The gels were stained for 1 hour in 50 mL of sodium borate buffer at 100 mM (pH 10.9) containing either […] of LavaPurple gel dye (Fluorotechnics; LP-011005) or one of the test compounds (50 μL for a 1 mg/mL solution). The gels were treated with 100 mL of 15% ethanol and then washed with 100 mL of fixing solution for 30 minutes.
# Imaging was performed using a Typhoon Trio imager (excitation: 532 nm, emission filter: 610BP30, 540 PMT, resolution: 100 μm) using a normal sensitivity. The recorded image corresponds to the scan at time zero. The gels were then placed in a UV transilluminator for 60, 146, 240, 330, 630 and 990 seconds (total exposure time), a Typhoon scanner image being recorded between each exposure. The volumes of the bands were analyzed using the Image-Quant TL software, and all the band volumes were normalized with phosphorylase B. The photobleaching was analyzed by graphically representing the band volumes as a function of the exposure time (GraphPad Prism v4 software) and by fitting the curve to a first-order exponential decay to determine a pseudofirst-order rate constant.
# FIG. 1 represents the decrease of the normalized residual signal of compounds (Ii), (Ij), (Ik), (In) and (Io) according to the invention and of epicocconone.
# From this FIGURE, the half-life times of the compounds may be deduced: […]
# [4] = cited from earlier work
# [5] = water and lipid bilayers; cited from earlier work
Compound,"λ UV (nm), second maximum [1] [nm]","λ UV (nm), first maximum [1] [nm]",Δ Stokes [2],λ fluo (λ excitation) (nm) [2] [nm],Intensity normalized to 50 μM [2],Half-life time [3] [min],"fluorescence emission wavelength of enamine adduct ([4]; adduct with amine functions, UV-Vis radiation, for example at 395 nm or 520 nm)",Stokes shift ([4]; difference between absorption and emission wavelength),solubility [5]
"COc1ccc(/C(O)=C/C(=O)C2=C3C=C4CC(C)OC=C4C(=O)C3(C)OC2=O)cc1 (stereo not drawn) [Ii, (Z)-3-(3-hydroxy-3-(4-methoxyphenyl)acryloyl)-6,9a-dimethyl-5,6-dihydro-9aH-furo[3,2-g]isochromene-2,9-dione]",497,366,99,596,3020,18.3,,,
"COc1ccc(/C(O)=C/C(=O)C2=C3C=C4CC(C)(C)OC=C4C(=O)C3(C)OC2=O)cc1 (stereo not drawn) [Ij, (Z)-3-(3-hydroxy-3-(4-methoxyphenyl)acryloyl)-6,6,9a-trimethyl-5,6-dihydro-9aH-furo[3,2-g]isochromene-2,9-dione]",505,366,98,603,3988,6.6,,,
"CC1(C)CC2=CC3=C(C(=O)/C=C(\O)c4ccccc4)C(=O)OC3(C)C(=O)C2=CO1 (stereo not drawn) [Ik, (Z)-3-(3-hydroxy-3-phenylacryloyl)-6,6,9a-trimethyl-5,6-dihydro-9aH-furo[3,2-g]isochromene-2,9-dione]",512,365,94,606,4157,22.4,,,

# Now from value to compound, other results behind:
"λ UV (nm), second maximum [1] [nm]","λ UV (nm), first maximum [1] [nm]",Δ Stokes [2],λ fluo (λ excitation) (nm) [2] [nm],Intensity normalized to 50 μM [2],Half-life time [3] [min],Compound,"fluorescence emission wavelength of enamine adduct ([4]; adduct with amine functions, UV-Vis radiation, for example at 395 nm or 520 nm)",Stokes shift ([4]; difference between absorption and emission wavelength),solubility [5]
525,363,87,612,2764,33.1,"CC1(C)CC2=CC3=C(/C(O)=C/C(=O)c4ccc(Cl)nc4)C(=O)OC3(C)C(=O)C2=CO1 (stereo not drawn) [In, 3-[3-(6-chloro-pyridin-3-yl)-1-hydroxy-3-oxopropenyl]-6,6,9a-trimethyl-5,6-dihydro-9aH-furo[3,2-g]isochromene-2,9-dione]",,,
520,364,89,609,4320,44.7,"CC1(C)CC2=CC3=C(C(=O)/C=C(\O)c4ccc5ccccc5c4)C(=O)OC3(C)C(=O)C2=CO1 (stereo not drawn) [Io, 3-(1-hydroxy-3-naphtalen-2-yl-3-oxopropenyl)-6,6,9a-trimethyl-5,6-dihydro-9aH-furo[3,2-g]isochromene-2,9-dione]",,,
515,388,95,610,3950,11.3,"C/C=C/C=C/C=C/C(=O)/C=C(\O)C1=C2C=C3C[C@@H](CO)OC=C3C(=O)[C@@]2(C)OC1=O [epicocconone, 5,6-dihydro-3-[(1Z,4E,6E,8E)-1-hydroxy-3-oxo-1,4,6,8-decatetraenyl]-6-hydroxymethyl-9a-methyl-2H-furo[3,2g][2]benzopyran-2,9-(9aH)-dione, reference compound]",about 600 nm,about 100 nm,good solubility both in water and in lipid bilayers

# From patent US8669378B2, “Process for synthesizing epicconone analogs” (Universite de Rouen, priority 2009, dated 2014)
